IC50 data for 54 molecules are collected here from PubChem BioAssay AID504680 (Sanford-Burnham Center for Chemical Genomics, 2011).

As a reminder, the IC50 is the concentration that gives 50% inhibition.

Calls of active or inactive are those of the source.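 The calls were made as follows: active = IC50 below 100 µM in the TR-FRET assay, unless also active in the caspase-3 counter assay; inactive = the rest, including compounds also active in caspase-3.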

In the assay the target is Caspase-3 (Homo sapiens) (UniProt P42574). The assay can be described thus: caspase-3 inhibitors as false-positive filter, SAR follow-up, counter-screen for UBC13 polyubiquitin inhibitor project, biochemical, luminescence, Caspase-Glo 3/7 (AID 504680). The conditions noted are these: recombinant caspase-3, Caspase-Glo luminescence, 60 min.
Caspase-3 (Homo sapiens), sequence (P42574 whole entry, looked up): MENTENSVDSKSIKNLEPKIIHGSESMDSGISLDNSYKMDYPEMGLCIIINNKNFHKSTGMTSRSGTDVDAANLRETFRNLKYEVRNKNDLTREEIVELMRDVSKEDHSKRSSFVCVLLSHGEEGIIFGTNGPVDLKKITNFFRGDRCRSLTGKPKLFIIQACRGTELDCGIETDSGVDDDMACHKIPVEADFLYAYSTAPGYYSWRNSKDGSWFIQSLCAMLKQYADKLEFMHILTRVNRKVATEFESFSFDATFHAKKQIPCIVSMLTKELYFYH
On to `O=C1c2cccc3cccc(c23)C(=O)N1CCN1CCN(CC(O)COc2ccc(C3CCCCC3)cc2)CC1` (centres undefined), for which the IC50 was > 100 µM (inactive). For the molecule `CN1CCN(CCCNC(=O)c2ccc(/C=C3\Oc4ccccc4N(Cc4ccc(Cl)cc4)C3=O)cc2)CC1`, the IC50 is > 100 µM (inactive).

On to `CC(NC(=O)CCCCCN1C(=O)c2ccccc2C1=O)c1nc(-c2ccccc2)no1` (centres undefined), for which the IC50 was > 100 µM (inactive). For the molecule `Cc1ccc(OCC(O)CN2CCN(CCN3C(=O)c4cccc5cccc(c45)C3=O)CC2)c(C)c1` (centres undefined), the IC50 is > 100 µM (inactive). Under `O=C1c2cccc3cccc(c23)C(=O)N1CCN1CCN(CC(O)COc2ccc3ccccc3c2)CC1` (centres undefined) stands > 100 µM (inactive); under `O=C(Nc1ccc(F)c(Cl)c1)C1CCN(c2ncnc3c2nc2n3CCCCC2)CC1`, > 100 µM (inactive); under `Cc1cc(C)c2sc(N(CCCN(C)C)C(=O)c3ccc(S(=O)(=O)N(C)C4CCCCC4)cc3)nc2c1`, > 100 µM (inactive). Take `COc1ccc(C)c2sc(N(CCCN(C)C)C(=O)c3ccc(S(=O)(=O)N(C)C)cc3)nc12`: the IC50 is > 100 µM (inactive).

With `COC(=O)C1=C(NC(=O)CCCCCN2C(=O)c3ccccc3C2=O)SC2CCCC12` (centres undefined), the IC50 is > 100 µM (inactive). Consider `COc1ccc(COCC(O)CN2CCC(CN3C(=O)c4cccc5cccc(c45)C3=O)CC2)cc1OC` (centres undefined), for which the IC50 was > 100 µM (inactive).

Take `CC1(C)Cc2c(sc(NC(=O)COc3ccc(Cl)cc3Cl)c2C(N)=O)C(C)(C)N1`: the IC50 was > 100 µM (inactive). For `O=C(CCCn1c(=O)c2ccccc2n(Cc2cccc(F)c2)c1=O)NC1CCN(Cc2ccccc2)CC1`, the IC50 was > 100 µM (inactive). With `CCCCOC(=O)c1cccc(NC(=O)CCCCCN2C(=O)c3ccccc3C2=O)c1`, the IC50 was > 100 µM (inactive). Under `CCCN1CCN(C(=O)C2CCN(c3ncnc4c3nc3n4CCCCC3)CC2)CC1` stands > 100 µM (inactive). On to `CN(C)CCCN(C(=O)c1ccc(S(=O)(=O)N2CCc3ccccc3C2)cc1)c1nc2ccc(F)cc2s1`, for which the IC50 is > 100 µM (inactive). Consider `CCOC(=O)c1c(NC(=O)COc2ccccc2C#N)sc2c1CC(C)(C)NC2(C)C`, for which the IC50 is > 100 µM (inactive).

Take `O=C(NCCCN1CCN(c2ccc(F)cc2)CC1)C1CCCN(c2ncnc3c2nc2n3CCCCC2)C1` (centres undefined): the IC50 is > 100 µM (inactive). `O=C(CCCn1c(=O)c2ccccc2n(Cc2cccc([N+](=O)[O-])c2)c1=O)NC1CCN(Cc2ccccc2)CC1`: the IC50 is > 100 µM (inactive). Regarding `CN(C)CCCN(C(=O)c1ccc(C(=O)c2ccccc2)cc1)c1nc2cc3c(cc2s1)OCCO3`, the IC50 was > 100 µM (inactive). As for `O=C(NCCCN1CCN(c2ccccc2)CC1)C1CCCN(c2ncnc3c2nc2n3CCCCC2)C1` (centres undefined), the IC50 is > 100 µM (inactive).

For `CC(NC(=O)CCCCCN1C(=O)c2cccc([N+](=O)[O-])c2C1=O)c1ccccc1` (centres undefined), the IC50 is > 100 µM (inactive).

As to `O=C(C1CCN(c2ncnc3c2nc2n3CCCCC2)CC1)N1CCOCC1`, the IC50 is > 100 µM (inactive). For the molecule `O=C(C1CCN(c2ncnc3c2nc2n3CCCCC2)CC1)N1CCN(Cc2ccccc2)CC1`, the IC50 was > 100 µM (inactive). With `O=C(CCCCCN1C(=O)c2ccccc2C1=O)NCc1ccccc1`, the IC50 was > 100 µM (inactive). On to `O=C1c2cccc3cccc(c23)C(=O)N1CC1CCN(CC(O)COCc2ccc3c(c2)OCO3)CC1` (centres undefined), for which the IC50 was > 100 µM (inactive). `Cc1cc(C)c2sc(N(CCCN(C)C)C(=O)c3ccc(S(=O)(=O)N4CCc5ccccc5C4)cc3)nc2c1`: the IC50 is > 100 µM (inactive). `CN(C)CCCN(C(=O)c1ccc(S(=O)(=O)N2CCCCC2)cc1)c1nc2cc3c(cc2s1)OCO3`: the IC50 is > 100 µM (inactive). With `N#Cc1ccccc1Cn1c(=O)n(CCCC(=O)NC2CCN(Cc3ccccc3)CC2)c(=O)c2ccccc21`, the IC50 is > 100 µM (inactive).

In the case of `Cc1ccc(C)c(OCC(O)CN2CCN(CCN3C(=O)c4cccc5cccc(c45)C3=O)CC2)c1` (centres undefined), the IC50 is > 100 µM (inactive). Turning to `Cc1c(NC(=O)CCCN2C(=O)c3cccc4cccc(c34)C2=O)c(=O)n(-c2ccccc2)n1C`, the IC50 was > 100 µM (inactive). Take `COc1ccc(-c2oc3ncnc(N)c3c2-c2ccccc2)cc1`: the IC50 is > 100 µM (inactive). Take `O=C(CCCCCN1C(=O)c2cccc3cccc(c23)C1=O)NCc1cccnc1`: the IC50 was > 100 µM (inactive). Under `COc1ccccc1NC(=S)NC(=O)CCCCCN1C(=O)c2ccccc2C1=O` stands > 100 µM (inactive); under `CCOc1cccc2sc(N(CCCN(C)C)C(=O)c3ccc(S(=O)(=O)N(CC)Cc4ccccc4)cc3)nc12`, > 100 µM (inactive); under `CC(=O)c1ccc(OCC(O)CN2CCN(CCN3C(=O)c4cccc5cccc(c45)C3=O)CC2)cc1` (centres undefined), > 100 µM (inactive). Consider `CN(C)CCCN(C(=O)c1ccc(S(=O)(=O)N2CCCC2)cc1)c1nc2ccc(Br)cc2s1`, for which the IC50 was > 100 µM (inactive). With `O=C(NCC1CCN(Cc2ccc(Cl)cc2)CC1)C1CCCN(c2ncnc3c2nc2n3CCCCC2)C1` (centres undefined), the IC50 was > 100 µM (inactive). Take `O=C(CCCCCN1C(=O)c2ccccc2C1=O)NCc1ccccn1`: the IC50 is > 100 µM (inactive). Regarding `COc1ccc2sc(N(CCCN(C)C)C(=O)c3ccc(S(=O)(=O)N(C)Cc4ccccc4)cc3)nc2c1`, the IC50 was > 100 µM (inactive). Take `COc1cccc2sc(N(CCCN(C)C)C(=O)c3ccc(S(=O)(=O)N4CCc5ccccc5C4)cc3)nc12`: the IC50 was > 100 µM (inactive). `Cc1ccccc1CN1CCC(CNC(=O)C2CCCN(c3ncnc4c3nc3n4CCCCC3)C2)CC1` (centres undefined): the IC50 is > 100 µM (inactive).

Regarding `O=C1c2cccc3cccc(c23)C(=O)N1CCN1CCN(CC(O)COCc2ccc(Cl)cc2)CC1` (centres undefined), the IC50 was > 100 µM (inactive).

`O=C(c1ccco1)N1CCN(C(=O)C2CCN(c3ncnc4c3nc3n4CCCCC3)CC2)CC1`: the IC50 is > 100 µM (inactive). As to `COc1cc(/C=C/c2cc[n+](C)cc2)ccc1OCC(=O)Nc1ccc(Cl)c(Cl)c1`, the IC50 was > 100 µM (inactive). On to `CN(C)CCCN(C(=O)c1ccc(S(=O)(=O)N2CCCCCC2)cc1)c1nc2cc3c(cc2s1)OCCO3`, for which the IC50 was > 100 µM (inactive). For the molecule `O=C1c2cccc3cccc(c23)C(=O)N1CCN1CCN(CC(O)COc2ccc(Cl)cc2)CC1` (centres undefined), the IC50 is > 100 µM (inactive). As for `CN(C)CCCN(C(=O)c1ccc2c(c1)CCCC2)c1nc2ccc(Cl)cc2s1`, the IC50 is > 100 µM (inactive).

As for `O=C(C1COc2ccccc2O1)N1CCN(CCN2C(=O)c3cccc4cccc(c34)C2=O)CC1` (centres undefined), the IC50 is > 100 µM (inactive). Take `O=C1c2cccc3cccc(c23)C(=O)N1CCN1CCN(CC(O)COc2ccccc2)CC1` (centres undefined): the IC50 is > 100 µM (inactive). Turning to `O=C(CCCn1c(=O)c2ccccc2n(Cc2ccc(Cl)cc2)c1=O)NC1CCN(Cc2ccccc2)CC1`, the IC50 is > 100 µM (inactive). Consider `CCCOC(=O)c1ccc(NC(=O)CCCCCN2C(=O)c3ccccc3C2=O)cc1`, for which the IC50 is > 100 µM (inactive).

Consider `COc1ccc(C(=O)Nn2c(C)nc3ccccc3c2=O)cc1`, for which the IC50 was > 100 µM (inactive). As to `O=C(C1CCN(c2ncnc3c2nc2n3CCCCC2)CC1)N1CCC(Cc2ccccc2)CC1`, the IC50 is > 100 µM (inactive). To `Cc1ccc(C)c(CN2CCC(CNC(=O)C3CCCN(c4ncnc5c4nc4n5CCCCC4)C3)CC2)c1` (centres undefined) belongs > 100 µM (inactive).
